Experimental data taken from US11814376B2, “Hepatitis b core protein modulators” (Assembly Biosciences, Inc., priority 2015, dated 2023).

Columns and labels:
AD38 cells = test: Viability of AD38 cells (Promega CellTiter-Glo); format: cell-based; conditions: 10 μM compound, 6 days, CellTiter-Glo luminescence normalized to DMSO control (100%)
Method in brief: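 AD38 cells were seeded at 50,000/well on collagen-coated plates and treated with compound added as a 10× solution in 10% DMSO for 6 days at 37° C. Viability was measured by CellTiter-Glo luminescence in tetracycline-free medium with 2% FBS and 1% DMSO, and expressed as percent of DMSO control.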

[1] = tested on: HBV viral load in AD38 cells; test: Viral load production in AD38 cells, quantitative PCR of the core sequence in supernatant; format: cell-based; conditions: Hepatitis B virus, 144 h, 10 μM compound, 6 days at 37° C., supernatant qPCR, relative to DMSO control; read-out: AD38 Viral Load (%) (VL with cmpd/VL in DMSO control) at 10 μM

Compound	AD38 Viability Normalized Result (cmpd/DMSO %) at 10 μM (AD38 cells) [%]	activity at 10 µM [1] [%]
O=C(NCc1cnc(N2CCOCC2)s1)c1ccc2c(c1)NC(=O)c1ccccc1O2 [compound 1611]	100	1.4
O=C(O)c1ccc(-c2ncc(CNC(=O)c3ccc4c(c3)NC(=O)c3ccccc3O4)s2)cc1 [compound 1612, 4-(5-((11-oxo-10, 11-dihydrodibenzo [b, f] [1, 4]oxazepine-8-carboxamido)methyl)thiazol-2-yl) benzoic acid]	105	6.9
CN(C)CCOc1ncc(CNC(=O)c2ccc3c(c2)NC(=O)c2ccccc2O3)s1 [compound 1614, N-((2-(2-(dimethylamino)ethoxy)thiazol-5-yl)methyl)-11-oxo-10, 11-dihydrodibenzo [b, f] [1, 4] oxazepine-8-carboxamide]	98	8.5
O=C(O)CNc1ncc(CNC(=O)c2ccc3c(c2)NC(=O)c2ccccc2O3)s1 [compound 1615, (5-((11-oxo-10, 11-dihydrodibenzo [b, f] [1, 4]oxazepine-8-carboxamido)methyl)thiazol-2-yl) glycine]	103	54.9
O=C(O)CSc1ncc(CNC(=O)c2ccc3c(c2)NC(=O)c2ccccc2O3)s1 [compound 1616, 2-((5-((11-oxo-10, 11-dihydrodibenzo [b, f] [1, 4]oxazepine-8-carboxamido)methyl)thiazol-2-yl)thio) acetic acid]	103	105
CN(C)CCSc1ncc(CNC(=O)c2ccc3c(c2)NC(=O)c2ccccc2O3)s1 [compound 1617]	101	2.2
O=C(NCc1cnc(-c2ccc(O)cc2)s1)c1ccc2c(c1)NC(=O)c1ccccc1O2 [compound 1618]	100	1.9
COc1ccc(-c2ncc(CNC(=O)c3ccc4c(c3)NC(=O)c3ccccc3O4)s2)cc1 [compound 1619]	95	1.3
O=C(O)COc1ccc(-c2ncc(CNC(=O)c3ccc4c(c3)NC(=O)c3ccccc3O4)s2)cc1 [compound 1620, 2-(4-(5-((11-oxo-10, 11-dihydrodibenzo [b, f] [1, 4]oxazepine-8-carboxamido)methyl)thiazol-2-yl)phenoxy) acetic acid]	103	41.9
CN(C)CCOc1ccc(-c2ncc(CNC(=O)c3ccc4c(c3)NC(=O)c3ccccc3O4)s2)cc1 [compound 1621]	81	25.9
O=C(NCc1cnc(-c2cccnc2)s1)c1ccc2c(c1)NC(=O)c1ccccc1S2(=O)=O [compound 1624]	98	0.8
O=C(NCc1cnc(-c2ccncc2)s1)c1ccc2c(c1)NC(=O)c1ccccc1S2(=O)=O [compound 1625]	96	51.9
O=C(NCc1cnc(-c2cncnc2)s1)c1ccc2c(c1)NC(=O)c1ccccc1S2(=O)=O [compound 1626]	99	2.7
N#Cc1ncc(CNC(=O)c2ccc3c(c2)NC(=O)c2ccccc2S3)s1 [compound 1627]	63	6
N#Cc1ncc(CNC(=O)c2ccc3c(c2)NC(=O)c2ccccc2S3(=O)=O)s1 [compound 1628]	95	21.8
O=C(NCc1cnc(C(F)(F)F)s1)c1ccc2c(c1)NC(=O)c1ccccc1O2 [compound 1629]	107	3.2
CN(C)C1CCN(c2ncc(CNC(=O)c3ccc4c(c3)NC(=O)c3ccccc3S4(=O)=O)s2)CC1 [compound 1636]	95	76.9
O=C(NCc1cnc(-c2ccc3[nH]cnc3c2)s1)c1ccc2c(c1)NC(=O)c1ccccc1S2(=O)=O [compound 1637]	101	2.3
CN(C)c1ccc(-c2ncc(CNC(=O)c3ccc4c(c3)NC(=O)c3ccccc3S4(=O)=O)s2)cc1 [compound 1645]	101	6.7
CN1CCN(c2ncc(CNC(=O)c3ccc4c(c3)NC(=O)c3ccccc3S4(=O)=O)s2)CC1 [compound 1648]	95	9.9

Compound	AD38 Viability Normalized Result (cmpd/DMSO %) at 10 μM (AD38 cells) [%]	activity at 10 µM [1] [%]
O=C(NCc1nccs1)c1ccc2c(c1)NC(=O)c1ccccc1S2(=O)=O [compound 1650]	82	58.8
Cl.N=C(N)c1ccc(-c2ncc(CNC(=O)c3ccc4c(c3)NC(=O)c3ccccc3S4(=O)=O)s2)cc1 [compound 1653, N-((2-(4-carbamimidoylphenyl)thiazol-5-yl)methyl)-11-oxo-10, 11-dihydrodibenzo [b, f] [1, 4] thiazepine-8-carboxamide 5,5-dioxide hydrochloride]	108	65.4
Cl.NCc1ccc(-c2ncc(CNC(=O)c3ccc4c(c3)NC(=O)c3ccccc3S4(=O)=O)s2)cc1 [compound 1654, N-((2-(4-(aminomethyl)phenyl)thiazol-5-yl)methyl)-11-oxo-10, 11-dihydrodibenzo [b, f] [1, 4] thiazepine-8-carboxamide 5,5-dioxide hydrochloride]	94	0.5
CN(C)CCOc1ncc(CN(C)C(=O)c2ccc3c(c2)NC(=O)c2ccccc2S3(=O)=O)s1 [compound 1660, N-((2-(2-(dimethylamino)ethoxy)thiazol-5-yl)methyl)-N-methyl-11-oxo-10, 11-dihydrodibenzo [b, f] [1, 4] thiazepine-8-carboxamide 5,5-dioxide]	102	86.8
CN(Cc1cnc(-c2ccc(O)cc2)s1)C(=O)c1ccc2c(c1)NC(=O)c1ccccc1S2(=O)=O [compound 1661]	90	45.2
O=C(NCc1cnc(-c2ccc(O)c(F)c2)s1)c1ccc2c(c1)NC(=O)c1ccccc1S2(=O)=O [compound 1664]	99	0.6
O=C(NCc1cnc(-c2cc(F)c(O)c(F)c2)s1)c1ccc2c(c1)NC(=O)c1ccccc1S2(=O)=O [compound 1665]	90	2.7
COc1ccc(-c2ncc(CNC(=O)c3ccc4c(c3)NC(=O)c3ccccc3S4(=O)=O)s2)cn1 [compound 1666, N-((2-(6-methoxypyridin-3-yl)thiazol-5-yl)methyl)-11-oxo-10, 11-dihydrodibenzo [b, f] [1, 4] thiazepine-8-carboxamide 5,5-dioxide]	98	0.9
O=C(NCc1cnc(-c2ccc(O)c(Cl)c2)s1)c1ccc2c(c1)NC(=O)c1ccccc1S2(=O)=O [compound 1667]	93	0.5
O=C(NCc1cnc(-c2ccc(O)cc2Cl)s1)c1ccc2c(c1)NC(=O)c1ccccc1S2(=O)=O [compound 1668]	106	23.4
O=C(NCc1cnc(-c2ccc(O)nc2)s1)c1ccc2c(c1)NC(=O)c1ccccc1S2(=O)=O [compound 1669, N-((2-(6-hydroxypyridin-3-yl)thiazol-5-yl)methyl)-11-oxo-10, 11-dihydrodibenzo [b, f] [1, 4] thiazepine-8-carboxamide 5,5-dioxide]	104	13.1
O=C(NCc1cnc(-c2ccc(O)cc2F)s1)c1ccc2c(c1)NC(=O)c1ccccc1S2(=O)=O [compound 1670]	102	0.9
O=C(NCc1cnc(-c2cnc(O)nc2)s1)c1ccc2c(c1)NC(=O)c1ccccc1S2(=O)=O [compound 1671, N-((2-(2-hydroxypyrimidin-5-yl)thiazol-5-yl)methyl)-11-oxo-10, 11-dihydrodibenzo [b, f] [1, 4] thiazepine-8-carboxamide 5,5-dioxide]	100	18.2
Nc1ccc(-c2ncc(CNC(=O)c3ccc4c(c3)NC(=O)c3ccccc3S4(=O)=O)s2)cn1 [compound 1672]	101	0.6
Nc1ncc(-c2ncc(CNC(=O)c3ccc4c(c3)NC(=O)c3ccccc3S4(=O)=O)s2)cn1 [compound 1673]	105	3.2
CN(C)c1ccc(-c2ncc(CNC(=O)c3ccc4c(c3)NC(=O)c3ccccc3S4(=O)=O)s2)cn1 [compound 1674]	121	0.3
CN(C)c1ncc(-c2ncc(CNC(=O)c3ccc4c(c3)NC(=O)c3ccccc3S4(=O)=O)s2)cn1 [compound 1675]	115	2.3
CN(C)CCCOc1ccc(-c2ncc(CNC(=O)c3ccc4c(c3)NC(=O)c3ccccc3S4(=O)=O)s2)cc1 [compound 1679]	94	1.1
CN(C)CCCOc1ncc(CNC(=O)c2ccc3c(c2)NC(=O)c2ccccc2S3(=O)=O)s1 [compound 1680, N-((2-(3-(dimethylamino)propoxy)thiazol-5-yl)methyl)-11-oxo-10, 11-dihydrodibenzo [b, f] [1, 4] thiazepine-8-carboxamide 5,5-dioxide]	94	15
